Results as given in patent US20070128217A1 (priority 2003, published 2007).

Columns and labels:
[1] = tested on: antibodies in sera from SARS patients (sera 1a, 1b, 2, 6, 37, 62, London, SARS-yellow, SARS-green); assay type: binding, human; set-up: Binding of serum 6 to linear peptides of protein X1 of SARS-CoV Urbani / Binding of serum 37 to linear peptides of protein X1 of SARS-CoV Urbani / Binding of serum 6 to looped/cyclic peptide (PEPSCAN-ELISA) / Binding of serum 37 to looped/cyclic peptide (PEPSCAN-ELISA) / Binding of serum 37 to looped/cyclic peptides of protein X1 of SARS-CoV Urbani / Binding of serum 6 to linear peptides of protein X2 / Binding of serum 37 to linear peptides of protein X2 / Binding of serum 37 to looped/cyclic peptides of protein X2 of SARS-CoV Urbani / Binding of serum 6 to linear peptides of protein M of SARS-CoV Urbani / Binding of serum 37 to linear peptides of protein M of SARS-CoV Urbani / Binding of serum 6 to looped/cyclic peptides of protein M of SARS-CoV Urbani / Binding of serum 37 to looped/cyclic peptides of protein M of SARS-CoV Urbani / Binding of serum 6 to linear peptides of protein X3 of SARS-CoV Urbani / Binding of serum 37 to linear peptides of protein X3 of SARS-CoV Urbani / Binding of serum 37 to looped/cyclic peptides of protein X3 of SARS-CoV Urbani / Binding of serum 6 to linear peptides of protein X4 of SARS-CoV Urbani / Binding of serum 37 to linear peptides of protein X4 of SARS-CoV Urbani / Binding of serum 37 to looped/cyclic peptides of protein X4 of SARS-CoV Urbani / Binding of serum 6 to linear peptides of protein X5 of SARS-CoV Urbani / Binding of serum 37 to linear peptides of protein X5 of SARS-CoV Urbani / Binding of serum 37 to looped/cyclic peptides of protein X5 of SARS-CoV Urbani / Binding of serum 6 to linear peptides of protein N of SARS-CoV Urbani / Binding of serum 37 to linear peptides of protein N of SARS-CoV Urbani / Binding of serum 6 to linear peptide (PEPSCAN-ELISA) / Binding of serum 1a to looped/cyclic peptides of protein N of SARS-CoV Urbani / Binding of serum 1b to looped/cyclic peptides of protein N of SARS-CoV Urbani / Binding of serum 2 to looped/cyclic peptides of protein N of SARS-CoV Urbani / Binding of serum 6 to looped/cyclic peptides of protein N of SARS-CoV Urbani / Binding of serum 37 to looped/cyclic peptides of protein N of SARS-CoV Urbani / Binding of serum 62 to looped/cyclic peptides of protein N of SARS-CoV Urbani / Binding of serum London to looped/cyclic peptides of protein N of SARS-CoV Urbani / Binding of serum SARS-green to looped/cyclic peptides of protein N of SARS-CoV Urbani: unit not given here
[2] = tested on: control sera (pooled serum of ten healthy LUMC hospital workers; commercial negative donor pooled serum from the Dutch bloodbank); assay type: binding, human; set-up: Binding of Control serum LUMC to linear peptides / Binding of Control serum Blood-bank to linear peptides / Binding of Control serum LUMC to looped peptides / Binding of Control Serum Blood-Bank to Looped peptides / Binding of Control serum LUMC to linear peptides of the protein M of SARS-CoV Urbani / Binding of Control serum Blood-bank to linear peptides of the protein M of SARS-CoV Urbani / Binding of Control serum LUMC to looped peptides of the protein M of SARS-CoV Urbani / Binding of Control Serum Blood-Bank to Looped peptides of the protein M of SARS-CoV Urbani: unit not given here
[3] = tested on: rabbit serum obtained by immunizing a rabbit with the SARS-CoV strain Frankfurt 1; assay type: binding; set-up: Binding of a rabbit serum to linear peptides / Binding of a rabbit serum to looped peptides / Rabbit serum linear peptides / Rabbit serum looped peptides / Binding of a rabbit serum to linear peptides of protein N of SARS-CoV Urbani (Rabbit serum linear peptides) / Binding of a rabbit serum to looped/cyclic peptides of protein N of SARS-CoV Urbani (Rabbit serum looped peptides): unit not given here

Sequence: STQITTDTGIENATF
- Binding of serum 1a to linear peptides of protein X1 of SARS-CoV Urbani [1]: 0.5
- Binding of serum 1a to looped/cyclic peptides of protein X1 of SARS-CoV Urbani [1]: 0.6
- Binding of serum 1b to linear peptides of protein X1 of SARS-CoV Urbani [1]: 0.4
- Binding of serum 1b to looped/cyclic peptides of protein X1 of SARS-CoV Urbani [1]: 0.4
- Binding of serum 2 to linear peptides of protein X1 of SARS-CoV Urbani [1]: 0.4
- Binding of serum 2 to looped/cyclic peptides of protein X1 of SARS-CoV Urbani [1]: 0.3
- Binding of serum 6 to linear peptides of protein X1 of SARS-CoV Urbani [1]: 0.5
- Binding of serum 6 to looped/cyclic peptides of protein X1 of SARS-CoV Urbani [1]: 0.3
- Binding of serum 37 to linear peptides of protein X1 of SARS-CoV Urbani [1]: 0.6
- Binding of serum 37 to looped/cyclic peptides of protein X1 of SARS-CoV Urbani [1]: 0.6
- Binding of serum 62 to linear peptides of protein X1 of SARS-CoV Urbani [1]: 0.4
- Binding of serum 62 to looped/cyclic peptides of protein X1 of SARS-CoV Urbani [1]: 0.6
- Binding of serum London to linear peptides of protein X1 of SARS-CoV Urbani [1]: 0.2
- Binding of serum London to looped/cyclic peptides of protein X1 of SARS-CoV Urbani [1]: 0.2
- Binding of serum SARS-green to linear peptides of protein X1 of SARS-CoV Urbani [1]: 0.3
- Binding of serum SARS-green to looped/cyclic peptides of protein X1 of SARS-CoV Urbani [1]: 0.4
- Binding of serum SARS-yellow to linear peptides of protein X1 of SARS-CoV Urbani [1]: 0.2
- Binding of serum SARS-yellow to looped/cyclic peptides of protein X1 of SARS-CoV Urbani [1]: 0.4
- Binding of Control Serum Blood-Bank to Looped peptides [2]: 0.5
- Binding of Control serum Blood-bank to linear peptides [2]: 0.5
- Binding of Control serum LUMC to linear peptides [2]: 0.6
- Binding of Control serum LUMC to looped peptides [2]: 0.6
- Binding of a rabbit serum to linear peptides [3]: 0.1
- Binding of a rabbit serum to looped peptides [3]: 0.7

Sequence: TIVVTEGDGISTPKL
- Binding of serum 1a to linear peptides of protein X1 of SARS-CoV Urbani [1]: 0.6
- Binding of serum 1a to looped/cyclic peptides of protein X1 of SARS-CoV Urbani [1]: 0.7
- Binding of serum 1b to linear peptides of protein X1 of SARS-CoV Urbani [1]: 0.5
- Binding of serum 1b to looped/cyclic peptides of protein X1 of SARS-CoV Urbani [1]: 0.7
- Binding of serum 2 to linear peptides of protein X1 of SARS-CoV Urbani [1]: 0.5
- Binding of serum 2 to looped/cyclic peptides of protein X1 of SARS-CoV Urbani [1]: 0.5
- Binding of serum 6 to linear peptides of protein X1 of SARS-CoV Urbani [1]: 0.6
- Binding of serum 6 to looped/cyclic peptides of protein X1 of SARS-CoV Urbani [1]: 0.4
- Binding of serum 37 to linear peptides of protein X1 of SARS-CoV Urbani [1]: 0.6
- Binding of serum 37 to looped/cyclic peptides of protein X1 of SARS-CoV Urbani [1]: 0.7
- Binding of serum 62 to linear peptides of protein X1 of SARS-CoV Urbani [1]: 0.5
- Binding of serum 62 to looped/cyclic peptides of protein X1 of SARS-CoV Urbani [1]: 0.6
- Binding of serum London to linear peptides of protein X1 of SARS-CoV Urbani [1]: 0.3
- Binding of serum London to looped/cyclic peptides of protein X1 of SARS-CoV Urbani [1]: 0.2
- Binding of serum SARS-green to linear peptides of protein X1 of SARS-CoV Urbani [1]: 0.3
- Binding of serum SARS-green to looped/cyclic peptides of protein X1 of SARS-CoV Urbani [1]: 0.6
- Binding of serum SARS-yellow to linear peptides of protein X1 of SARS-CoV Urbani [1]: 0.3
- Binding of serum SARS-yellow to looped/cyclic peptides of protein X1 of SARS-CoV Urbani [1]: 0.5
- Binding of Control Serum Blood-Bank to Looped peptides [2]: 0.6
- Binding of Control serum Blood-bank to linear peptides [2]: 0.5
- Binding of Control serum LUMC to linear peptides [2]: 0.5
- Binding of Control serum LUMC to looped peptides [2]: 0.7
- Binding of a rabbit serum to linear peptides [3]: 0.1
- Binding of a rabbit serum to looped peptides [3]: 0.5

Sequence: ACIVGLMWLSYFVAS
- Binding of serum 1a to linear peptides of protein M of SARS-CoV Urbani [1]: 0.7
- Binding of serum 1a to looped/cyclic peptides of protein M of SARS-CoV Urbani [1]: 0.6
- Binding of serum 1b to linear peptides of protein M of SARS-CoV Urbani [1]: 0.5
- Binding of serum 1b to looped/cyclic peptides of protein M of SARS-CoV Urbani [1]: 0.3
- Binding of serum 2 to linear peptides of protein M of SARS-CoV Urbani [1]: 0.5
- Binding of serum 2 to looped/cyclic peptides of protein M of SARS-CoV Urbani [1]: 0.5
- Binding of serum 6 to linear peptides of protein M of SARS-CoV Urbani [1]: 0.4
- Binding of serum 6 to looped/cyclic peptides of protein M of SARS-CoV Urbani [1]: 0.6
- Binding of serum 37 to linear peptides of protein M of SARS-CoV Urbani [1]: 0.6
- Binding of serum 37 to looped/cyclic peptides of protein M of SARS-CoV Urbani [1]: 0.5
- Binding of serum 62 to linear peptides of protein M of SARS-CoV Urbani [1]: 0.7
- Binding of serum 62 to looped/cyclic peptides of protein M of SARS-CoV Urbani [1]: 0.4
- Binding of serum London to linear peptides of protein M of SARS-CoV Urbani [1]: 0.3
- Binding of serum London to looped/cyclic peptides of protein M of SARS-CoV Urbani [1]: 0.2
- Binding of serum SARS-green to linear peptides of protein M of SARS-CoV Urbani [1]: 0.2
- Binding of serum SARS-green to looped/cyclic peptides of protein M of SARS-CoV Urbani [1]: 0.2
- Binding of serum SARS-yellow to linear peptides of protein M of SARS-CoV Urbani [1]: 0.1
- Binding of serum SARS-yellow to looped/cyclic peptides of protein M of SARS-CoV Urbani [1]: 0.4
- Binding of Control Serum Blood-Bank to Looped peptides of the protein M of SARS-CoV Urbani [2]: 0.6
- Binding of Control serum Blood-bank to linear peptides of the protein M of SARS-CoV Urbani [2]: 0.6
- Binding of Control serum LUMC to linear peptides of the protein M of SARS-CoV Urbani [2]: 0.3
- Binding of Control serum LUMC to looped peptides of the protein M of SARS-CoV Urbani [2]: 0.5
- Rabbit serum linear peptides [3]: 0.3
- Rabbit serum looped peptides [3]: 0.8
